The source of these data is ChEMBL document CHEMBL5113439, “Rationally Designed Amanitins Achieve Enhanced Cytotoxicity” (J Med Chem, 2022).

The nature of data set [1]: Inhibition of RNA polymerase 2 in human HeLa cells nuclear extract using DNA template as substrate incubated for 60 mins by TRA. It is filed as subcellular, Nucleus.
Data set [2] is described as follows: Cytotoxicity against chinese hamster CHO cells assessed as reduction in cell viability incubated for 72 hrs by MTT assay. It is filed as toxicity, cell-based, Cricetulus griseus. A general note: Formazan colour is commonly taken as a measure of viable cells.
The test system of another data set is HepG2. Nature of the data set: Cytotoxicity against human HepG2 cells assessed as reduction in cell viability incubated for 72 hrs by MTT assay. It is filed as functional, cell-based. The following applies: HepG2, 72 h.
A short description of data set [3]: Cytotoxicity against human HEK293 cells assessed as reduction in cell viability incubated for 72 hrs by MTT assay. It is filed as toxicity, cell-based.
In another data set the test system is HeLa. Nature of the data set: Cytotoxicity against human HeLa cells assessed as reduction in cell viability incubated for 72 hrs by MTT assay. It is filed as functional, cell-based.

Numbered stars: 1 amine (or outer) side, 2 acyl side, 3 side chain; on linkers, the order of the positions; unused ones are H or OH. Bridge positions count the residues as written; N and C are the ends. Square brackets hold non-standard residues; d marks the D form. Peptide text beside a SMILES is read from it. Trp(2-yl) = O=C([C@H](Cc1c([*:3])[nH]c2ccccc12)N[*:1])[*:2]; X4 = O=C([C@H](Cc1c([*:3])[nH]c2ccc(O)cc12)N[*:1])[*:2]; Ile(4R-OH,5-OH) = C[C@H]([C@H](N)C(=O)O)[C@@H](O)CO; X5 = C[C@@H](S[*:3])[C@H](N[*:1])C(=O)[*:2]; X2 = CC[C@H](C)[C@@H](CNNC(=O)[*:2])N[*:1]; X3 = C[C@H](S[*:3])[C@H](N[*:1])C(=O)[*:2]; X1 = CS[C@H](C)[C@H](N[*:1])C(=O)[*:2]; Nva(3-Et) = CCC(CC)[C@H](N)C(=O)O; αMeI = CC[C@H](C)[C@](C)(N)C(=O)O; Hyp = O=C(O)[C@@H]1C[C@@H](O)CN1; Pen = CC(C)(S)[C@H](N)C(=O)O; azaGly = NNC(=O)O A value given as a limit tells only on which side of the number the result lay.

As usually defined, the IC50 is the concentration needed to halve the response being measured. Consider `CO[C@H](C)[C@@H]1NC(=O)CNC(=O)[C@@H]2Cc3c([nH]c4ccccc34)SC[C@H](NC(=O)CNC1=O)C(=O)N[C@@H](CC(N)=O)C(=O)N1C[C@H](O)C[C@H]1C(=O)N[C@@H]([C@@H](C)[C@@H](O)CO)C(=O)N2` (cyclo(CN[Hyp][Ile(4R-OH,5-OH)][Trp(2-yl)]GT(Me)G); thioether 1-5), for which the IC50 in data set [1] stood at 42 nM. The IC50 at 72 h in data set [2] is over 20000 nM.

For the molecule `CCC(CC)[C@@H]1NC(=O)CNC(=O)[C@@H]2Cc3c([nH]c4ccccc34)S[C@@H](C)[C@H](NC(=O)CNC1=O)C(=O)N[C@@H](CC(N)=O)C(=O)N1C[C@H](O)C[C@H]1C(=O)N[C@@H]([C@@H](C)[C@@H](O)CO)C(=O)N2` (cyclo(G[Nva(3-Et)]G[X3]N[Hyp][Ile(4R-OH,5-OH)][Trp(2-yl)]); thioether 4-8), the IC50 in data set [1] amounted to 9.5 nM; in the data set on HepG2, 110 nM; in the data set with HeLa, 600 nM. Moreover, the IC50 at 72 h was determined as 610 nM in data set [2] and 200 nM in data set [3].

Turning to `CC[C@H](C)[C@@H]1NC(=O)CNC(=O)[C@@H]2Cc3c([nH]c4ccccc34)SC[C@H](NC(=O)CNC1=O)C(=O)N[C@@H](CC(N)=O)C(=O)N1C[C@H](O)C[C@H]1C(=O)N[C@@H]([C@@H](C)[C@@H](O)CO)C(=O)N2` (cyclo(CN[Hyp][Ile(4R-OH,5-OH)][Trp(2-yl)]GIG); thioether 1-5), it took 9.5 nM to reach half-maximal inhibition in data set [1] (IC50). Also, the IC50 at 72 h in data set [2] came out at 1300 nM.

In data set [1], `C[C@H]([C@@H]1NC(=O)[C@@H]2C[C@@H](O)CN2C(=O)[C@H](CC(N)=O)NC(=O)[C@@H]2CSc3[nH]c4ccccc4c3C[C@H](NC1=O)C(=O)NCC(=O)N[C@H](C1CCCC1)C(=O)NCC(=O)N2)[C@@H](O)CO` gave an IC50 of 47 nM. For the same molecule, the half-inhibitory concentration (IC50) at 72 h in data set [2] amounted to 6900 nM.

The molecule `CC[C@H](C)[C@@H]1NC(=O)CNC(=O)[C@@H]2Cc3c([nH]c4ccccc34)SC(C)(C)[C@H](NC(=O)CNC1=O)C(=O)N[C@@H](CC(N)=O)C(=O)N1C[C@H](O)C[C@H]1C(=O)N[C@@H]([C@@H](C)[C@@H](O)CO)C(=O)N2` (cyclo(GIG[Pen]N[Hyp][Ile(4R-OH,5-OH)][Trp(2-yl)]); thioether 4-8) yielded a 50% inhibitory concentration (IC50) in data set [1] of 17.7 nM. In data set [2], the IC50 at 72 h was determined as 9300 nM.

`CC[C@H](C)[C@@H]1NC(=O)CNC(=O)[C@@H]2Cc3c([nH]c4ccc(O)cc34)S[C@@H](C)[C@H](NC(=O)CNC1=O)C(=O)N[C@@H](CC(N)=O)C(=O)N1C[C@H](O)C[C@H]1C(=O)N[C@@H]([C@@H](C)[C@@H](O)CO)C(=O)N2` (cyclo(GIG[X3]N[Hyp][Ile(4R-OH,5-OH)][X4]); thioether 4-8) had a half-maximal inhibitory concentration (IC50) in data set [1] of 14.7 nM. Besides, the IC50 at 72 h amounted to 6900 nM in data set [2] and 880 nM in data set [3].

On to `CC[C@H](C)[C@H]1CNNC(=O)N[C@H]2CSc3[nH]c4ccccc4c3C[C@H](NC(=O)[C@H]([C@@H](C)[C@@H](O)CO)NC(=O)[C@@H]3C[C@@H](O)CN3C(=O)[C@H](CC(N)=O)NC2=O)C(=O)NCC(=O)N1` (cyclo(CN[Hyp][Ile(4R-OH,5-OH)][Trp(2-yl)]G[X2]); thioether 1-5), for which the concentration for half-maximal inhibition (IC50) in data set [1] was 4.7 nM; in the data set with HepG2, 2700 nM; in the data set with HeLa it was 830 nM. In addition, the results for the IC50 at 72 h in data set [2] and in data set [3] were 380 nM and 460 nM, respectively.

Turning to `CC[C@H](C)[C@]1(C)NC(=O)NNC(=O)[C@@H]2Cc3c([nH]c4ccccc34)SC[C@H](NC(=O)CNC1=O)C(=O)N[C@@H](CC(N)=O)C(=O)N1C[C@H](O)C[C@H]1C(=O)N[C@@H]([C@@H](C)[C@@H](O)CO)C(=O)N2` (cyclo(CN[Hyp][Ile(4R-OH,5-OH)][Trp(2-yl)][azaGly][αMeI]G); thioether 1-5), the IC50 in data set [1] was 5.3 nM. For the same molecule, the values for the IC50 at 72 h in data set [2] and in data set [3] were 2400 nM and 450 nM, respectively.

In data set [1], `CC[C@H](C)[C@@H]1NC(=O)CNC(=O)[C@@H]2Cc3c([nH]c4ccccc34)S[C@H](C)[C@H](NC(=O)CNC1=O)C(=O)N[C@@H](CC(N)=O)C(=O)N1C[C@H](O)C[C@H]1C(=O)N[C@@H]([C@@H](C)[C@@H](O)CO)C(=O)N2` (cyclo(GIG[X5]N[Hyp][Ile(4R-OH,5-OH)][Trp(2-yl)]); thioether 4-8) showed a concentration for half-maximal inhibition (IC50) of over 128 nM. For the same molecule, in data set [2], the IC50 at 72 h is over 20000 nM.

In the case of `CS[C@H](C)[C@@H]1NC(=O)CNC(=O)[C@@H]2Cc3c([nH]c4ccccc34)SC[C@H](NC(=O)CNC1=O)C(=O)N[C@@H](CC(N)=O)C(=O)N1C[C@H](O)C[C@H]1C(=O)N[C@@H]([C@@H](C)[C@@H](O)CO)C(=O)N2` (cyclo(CN[Hyp][Ile(4R-OH,5-OH)][Trp(2-yl)]G[X1]G); thioether 1-5), the IC50 in data set [1] was 8.6 nM; with HepG2, over 10000 nM; in the data set on HeLa, 4000 nM. The figures for the half-maximal inhibitory concentration (IC50) at 72 h in data set [2] and in data set [3] were 5600 nM and 1500 nM, respectively.

In data set [1], `CCC(CC)[C@@H]1NC(=O)CNC(=O)[C@@H]2Cc3c([nH]c4ccccc34)SC[C@H](NC(=O)CNC1=O)C(=O)N[C@@H](CC(N)=O)C(=O)N1C[C@H](O)C[C@H]1C(=O)N[C@@H]([C@@H](C)[C@@H](O)CO)C(=O)N2` (cyclo(CN[Hyp][Ile(4R-OH,5-OH)][Trp(2-yl)]G[Nva(3-Et)]G); thioether 1-5) showed an IC50 of 8.5 nM. Besides, the figures for the IC50 at 72 h in data set [2] and in data set [3] were 780 nM and 370 nM, respectively.

`CC[C@H](C)[C@@H]1NC(=O)CNC(=O)[C@@H]2Cc3c([nH]c4ccccc34)S[C@@H](C)[C@H](NC(=O)CNC1=O)C(=O)N[C@@H](CC(N)=O)C(=O)N1C[C@H](O)C[C@H]1C(=O)N[C@@H]([C@@H](C)[C@@H](O)CO)C(=O)N2` (cyclo(GIG[X3]N[Hyp][Ile(4R-OH,5-OH)][Trp(2-yl)]); thioether 4-8) displayed an IC50 in data set [1] of 10 nM. Besides, the half-inhibitory concentration (IC50) at 72 h was 1300 nM in data set [2] and 510 nM in data set [3].

Regarding `CCC(CC)[C@@H]1NC(=O)CNC(=O)[C@@H]2Cc3c([nH]c4ccc(O)cc34)S[C@@H](C)[C@H](NC(=O)CNC1=O)C(=O)N[C@@H](CC(N)=O)C(=O)N1C[C@H](O)C[C@H]1C(=O)N[C@@H]([C@@H](C)[C@@H](O)CO)C(=O)N2` (cyclo(G[Nva(3-Et)]G[X3]N[Hyp][Ile(4R-OH,5-OH)][X4]); thioether 4-8), the IC50 in data set [1] was 13.8 nM. Also, the values for the IC50 at 72 h in data set [2] and in data set [3] were 2400 nM and 510 nM, respectively.

`CCC(CC)[C@@H]1NC(=O)CNC(=O)[C@@H]2Cc3c([nH]c4ccc(O)cc34)SC[C@H](NC(=O)CNC1=O)C(=O)N[C@@H](CC(N)=O)C(=O)N1C[C@H](O)C[C@H]1C(=O)N[C@@H]([C@@H](C)[C@@H](O)CO)C(=O)N2` (cyclo(CN[Hyp][Ile(4R-OH,5-OH)][X4]G[Nva(3-Et)]G); thioether 1-5) yielded an IC50 in data set [1] of 17.8 nM. In addition, the IC50 at 72 h worked out at 2500 nM in data set [2] and 320 nM in data set [3].

As to `CC[C@H](C)[C@@H]1NC(=O)CNC(=O)[C@@H]2Cc3c([nH]c4cc(O)ccc34)[S+]([O-])C[C@H](NC(=O)CNC1=O)C(=O)N[C@@H](CC(N)=O)C(=O)N1C[C@H](O)C[C@H]1C(=O)N[C@@H]([C@@H](C)[C@@H](O)CO)C(=O)N2` (stereo partly drawn), the IC50 stood at 1 nM in data set [1], 560 nM with HepG2 and 1000 nM with HeLa. The IC50 at 72 h in data set [2] and in data set [3] was 1000 nM throughout.
